Results published in US20160220569A1, “CDK4/6 Inhibitor Dosage Formulations For The Protection Of Hematopoietic Stem And Progenitor Cells During Chemotherapy” (G1 Therapeutics, Inc., priority 2015, published 2016).
Where two headings read alike, the source gives them in different places.

Assay: 14-day oral gavage toxicokinetic study in rats
Format: in vivo
Details: female, rat, plasma, po; for half-life: read-out: t½ (converted); for concentration at 0.5 h / concentration at 2 h / concentration at 4 h / concentration at 8 h / concentration at 12 h / concentration at 24 h / concentration at 1 h / concentration at […]: rats
Experimental: Plasma was obtained from blood samples collected from rats in a composite sampling scheme, with 3 samples collected per sex, per dose, at each target collection time, as illustrated in Table 21 to Table 25. Samples were collected from the vehicle control group on Day 1 and Day 14 at 3 hour after administration. […] Blood samples were collected in tubes containing K3EDTA as an anticoagulant and placed on ice until processed to plasma via centrifugation. Samples were stored frozen at −80° C. until shipment to the bioanalytical laboratory for analysis.
The following parameters were determined:
Cmax: Maximum observed plasma concentration (ng/mL).
A value of 0 ng/mL was assigned to all values below the lower limit of quantitation (BLQ, <10.0 ng/mL).
AUC(0-inf): Area under the plasma concentration vs. time curve extrapolated from 0 to infinity (ng*h/mL), calculated as AUC(0-t)+AUC(t-inf) where AUC(t-inf) is calculated as last measurable concentration (CLast) divided by ke, where ke is the elimination rate constant determined by linear regression of the last three analytically measured points on the log plasma concentration vs. time curve. The selection criteria of the data points for inclusion in the calculation of ke required that at least three data points representing the terminal phase (after Tmax) were regressed and that R2≧0.850 when rounded.
CL: Clearance (L/h/kg), calculated as the dose divided by AUC(0-t).
Vd: Volume of distribution (L/kg), calculated as dose divided by the product of ke and AUC(0-inf).
Vdss: Steady state volume of distribution (L/kg), calculated as clearance […] mean residence time, where mean residence time is calculated as the area under the first moment curve divided by AUC(0-t).
t½: Elimination half-life (h), calculated as ln(2)/ke, where ke is the elimination rate constant determined by linear regression. Half-life was defined as not determined if regression criteria (specified in AUC(0-inf) above) were not met.
Cmax/Dose: Normalized Cmax, calculated as Cmax divided by total dose.
AUC/Dose: Normalized AUC, calculated as AUC(0-t) divided by total dose.
ii. Statistical Analysis Mean and standard deviation (SD) were calculated in Watson. Values of BLQ were assigned a value of 0 ng/mL for mean calculations. Concentration values and derived TK parameters were reported to three significant figures.

[1] = 5 mg/kg, oral 5 mg/kg, Study Day 14, Female
[2] = 15 mg/kg, oral 15 mg/kg, Study Day 1, Female
[3] = 15 mg/kg, oral 15 mg/kg, Study Day 14, Female

## CN1CCN(c2ccc(Nc3ncc4cc5n(c4n3)C3(CCCCC3)CNC5=O)nc2)CC1 [Compound 1, 2′-((5-(4-methylpiperazin-1-yl)pyridin-2-yl)amino)-7′,8′-dihydro-6′H-spiro[cyclohexane-1,9′-pyrazino[1′,2′:1,5]pyrrolo[2,3-d]pyrimidin]-6′-one]
[1]
  Tmax: 1 h
  half-life: 4.41 h
15 mg/kg, Individual Compound 1 Plasma Concentration, daily oral 15 mg/kg, Day 1, Female, 0.5 h
  concentration at 0.5 h: 1050 ng/mL
15 mg/kg, Individual Compound 1 Plasma Concentration, daily oral 15 mg/kg, Day 1, Female, 2 h
  concentration at 2 h: 1820 ng/mL
15 mg/kg, Individual Compound 1 Plasma Concentration, daily oral 15 mg/kg, Day 1, Female, 4 h
  concentration at 4 h: 1750 ng/mL
15 mg/kg, Individual Compound 1 Plasma Concentration, daily oral 15 mg/kg, Day 1, Female, 8 h
  concentration at 8 h: 1250 ng/mL
15 mg/kg, Individual Compound 1 Plasma Concentration, daily oral 15 mg/kg, Day 1, Female, 12 h
  concentration at 12 h: 1010 ng/mL
15 mg/kg, Individual Compound 1 Plasma Concentration, daily oral 15 mg/kg, Day 1, Female, 24 h
  concentration at 24 h: 63.9 ng/mL
15 mg/kg, Individual Compound 1 Plasma Concentration, daily oral 15 mg/kg, Day 14, Female, 0.5 h
  concentration at 0.5 h: 908 ng/mL
15 mg/kg, Individual Compound 1 Plasma Concentration, daily oral 15 mg/kg, Day 14, Female, 1 h
  concentration at 1 h: 1410 ng/mL
15 mg/kg, Individual Compound 1 Plasma Concentration, daily oral 15 mg/kg, Day 14, Female, 4 h
  concentration at 4 h: 1580 ng/mL
15 mg/kg, Individual Compound 1 Plasma Concentration, daily oral 15 mg/kg, Day 14, Female, 8 h
  concentration at 8 h: 996 ng/mL
15 mg/kg, Individual Compound 1 Plasma Concentration, daily oral 15 mg/kg, Day 14, Female, 12 h
  concentration at 12 h: 1060 ng/mL
15 mg/kg, Individual Compound 1 Plasma Concentration, daily oral 15 mg/kg, Day 14, Female, 24 h
  concentration at 24 h: 106 ng/mL
15 mg/kg, Individual Compound 1 Plasma Concentration, daily oral 15 mg/kg, Day 14, Female, […]
  concentration at […]: 117 ng/mL
15 mg/kg, Mean Compound 1 Plasma Concentration, oral 15 mg/kg, Day 1, 0.5 h, Female
  concentration at 0.5 h: 1180 ng/mL
15 mg/kg, Mean Compound 1 Plasma Concentration, oral 15 mg/kg, Day 1, 1 h, Female
  concentration at 1 h: 1530 ng/mL
15 mg/kg, Mean Compound 1 Plasma Concentration, oral 15 mg/kg, Day 1, 2 h, Female
  concentration at 2 h: 1910 ng/mL
15 mg/kg, Mean Compound 1 Plasma Concentration, oral 15 mg/kg, Day 1, 4 h, Female
  concentration at 4 h: 1690 ng/mL
15 mg/kg, Mean Compound 1 Plasma Concentration, oral 15 mg/kg, Day 1, 8 h, Female
  concentration at 8 h: 1440 ng/mL
15 mg/kg, Mean Compound 1 Plasma Concentration, oral 15 mg/kg, Day 1, 12 h, Female
  concentration at 12 h: 916 ng/mL
15 mg/kg, Mean Compound 1 Plasma Concentration, oral 15 mg/kg, Day 1, 24 h, Female
  concentration at 24 h: 84.5 ng/mL
15 mg/kg, Mean Compound 1 Plasma Concentration, oral 15 mg/kg, Day 1, […], Female
  concentration at […]: 109 ng/mL
15 mg/kg, Mean Compound 1 Plasma Concentration, oral 15 mg/kg, Day 14, 0.5 h, Female
  concentration at 0.5 h: 1170 ng/mL
15 mg/kg, Mean Compound 1 Plasma Concentration, oral 15 mg/kg, Day 14, 1 h, Female
  concentration at 1 h: 1450 ng/mL
15 mg/kg, Mean Compound 1 Plasma Concentration, oral 15 mg/kg, Day 14, 2 h, Female
  concentration at 2 h: 1490 ng/mL
15 mg/kg, Mean Compound 1 Plasma Concentration, oral 15 mg/kg, Day 14, 4 h, Female
  concentration at 4 h: 1570 ng/mL
15 mg/kg, Mean Compound 1 Plasma Concentration, oral 15 mg/kg, Day 14, 8 h, Female
  concentration at 8 h: 979 ng/mL
15 mg/kg, Mean Compound 1 Plasma Concentration, oral 15 mg/kg, Day 14, 12 h, Female
  concentration at 12 h: 805 ng/mL
15 mg/kg, Mean Compound 1 Plasma Concentration, oral 15 mg/kg, Day 14, 24 h, Female
  concentration at 24 h: 130 ng/mL
15 mg/kg, Mean Compound 1 Plasma Concentration, oral 15 mg/kg, Day 14, […], Female
  concentration at […]: 131 ng/mL
[2]
  AUC(0-inf): 23700 ng·h/mL
  AUC(0-t): 23200 ng·h/mL
  Cmax: 1910 ng/mL
  Tmax: 2 h
[3]
  AUC(0-inf): 20800 ng·h/mL
  AUC(0-t): 19800 ng·h/mL
  Cmax: 1570 ng/mL
  Tmax: 4 h
  half-life: 5.24 h
30 mg/kg, Individual Compound 1 Plasma Concentration, daily oral 30 mg/kg, Day 1, Female, 0.5 h
  concentration at 0.5 h: 2030 ng/mL
30 mg/kg, Individual Compound 1 Plasma Concentration, daily oral 30 mg/kg, Day 1, Female, 1 h
  concentration at 1 h: 2500 ng/mL
30 mg/kg, Individual Compound 1 Plasma Concentration, daily oral 30 mg/kg, Day 1, Female, 2 h
  concentration at 2 h: 3440 ng/mL
30 mg/kg, Individual Compound 1 Plasma Concentration, daily oral 30 mg/kg, Day 1, Female, 4 h
  concentration at 4 h: 2570 ng/mL
30 mg/kg, Individual Compound 1 Plasma Concentration, daily oral 30 mg/kg, Day 1, Female, 8 h
  concentration at 8 h: 2480 ng/mL
30 mg/kg, Individual Compound 1 Plasma Concentration, daily oral 30 mg/kg, Day 1, Female, 12 h
  concentration at 12 h: 2000 ng/mL
30 mg/kg, Individual Compound 1 Plasma Concentration, daily oral 30 mg/kg, Day 1, Female, 24 h
  concentration at 24 h: 310 ng/mL
30 mg/kg, Individual Compound 1 Plasma Concentration, daily oral 30 mg/kg, Day 1, Female, […]
  concentration at […]: 114 ng/mL
30 mg/kg, Individual Compound 1 Plasma Concentration, daily oral 30 mg/kg, Day 14, Female, 0.5 h
  concentration at 0.5 h: 1450 ng/mL
30 mg/kg, Individual Compound 1 Plasma Concentration, daily oral 30 mg/kg, Day 14, Female, 1 h
  concentration at 1 h: 2740 ng/mL
30 mg/kg, Individual Compound 1 Plasma Concentration, daily oral 30 mg/kg, Day 14, Female, 2 h
  concentration at 2 h: 2170 ng/mL
30 mg/kg, Individual Compound 1 Plasma Concentration, daily oral 30 mg/kg, Day 14, Female, 4 h
  concentration at 4 h: 2700 ng/mL
30 mg/kg, Individual Compound 1 Plasma Concentration, daily oral 30 mg/kg, Day 14, Female, 8 h
  concentration at 8 h: 1970 ng/mL
30 mg/kg, Individual Compound 1 Plasma Concentration, daily oral 30 mg/kg, Day 14, Female, 12 h
  concentration at 12 h: 2290 ng/mL
30 mg/kg, Individual Compound 1 Plasma Concentration, daily oral 30 mg/kg, Day 14, Female, 24 h
  concentration at 24 h: 280 ng/mL
